Experimental findings from patent US9182664B2, “Polymerizable fluorine-containing sulfonate, fluorine-containing sulfonate resin, resist composition and pattern-forming method using same” (Central Glass Company, Limited, priority 2010, dated 2015) are described below.

The data set in a line: Solubility of polymerizable fluorine-containing sulfonic acid onium salts (polymerizable monomers) in PGMEA. The format is physicochemical. An excerpt: The structures and abbreviations of the polymerizable monomers used in this reference example are indicated below. Among others, the monomers PAG-1, PAG-2 and PAG-3 are the polymerizable fluorine-containing sulfonic acid onium salts according to the present invention. [table]

Setting [1] is: amount of polymerizable monomer in 100 g of PGMEA.

Where two headings read alike, the source gives them in different places.

As for `C=C(C)C(=O)OCC(=O)OCC(F)(F)S(=O)(=O)O` [PAG-C2, reference compound], the “Solubility (g/100 g)” value under setting [1] is given as 11 g/100 g.
The same measure, in the same setting: under `C=C(C)C(=O)OCC(F)(F)S(=O)(=O)O` [PAG-C1, reference compound] stands 10 g/100 g.
Take `C=C(C)C(=O)OC(OCCCCC(F)(F)C(F)(F)S(=O)(=O)O)(C(=O)OCC)C(F)(F)F` (centres unmarked) [PAG-3, Triphenylsulfonium 6-(1-Ethoxycarbonyl-1-methacryloyloxy-2,2,2-trifluoroethoxy)-1,1,2,2-tetrafluorohexanesulfonate]: the “Solubility (g/100 g)” value is given as 90 g/100 g.
Same read-out and setting: under `C=C(C)C(=O)OC(OCC(F)(F)S(=O)(=O)O)(C(=O)OCC)C(F)(F)F` (centres unmarked) [PAG-1, Triphenylsulfonium 2-(1-Ethoxycarbonyl-1-methacryloyloxy-2,2,2-trifluoroethoxy)-1,1-difluoroethanesulfonate] stands 45 g/100 g; under `C=C(C)C(=O)OC(OCCC(F)(F)C(F)(F)S(=O)(=O)O)(C(=O)OCC)C(F)(F)F` (centres unmarked) [PAG-2, Triphenylsulfonium 4-(1-Ethoxycarbonyl-1-methacryloyloxy-2,2,2-trifluoroethoxy)-1,1,2,2-tetrafluorobutanesulfonate], 55 g/100 g.
